{"source": "patent US9611251B2", "about": "“Substituted piperidine compounds and their use as orexin receptor modulators” (Janssen Pharmaceutica NV, priority 2013, dated 2017)", "note": "pKi: −log10 of the molar value. Counter-ions that a name gives are not always drawn.", "data": [{"biological_target": "human orexin 2 receptor (Homo sapiens (Human), UniProt O43614)", "sequence (O43614 whole entry)": "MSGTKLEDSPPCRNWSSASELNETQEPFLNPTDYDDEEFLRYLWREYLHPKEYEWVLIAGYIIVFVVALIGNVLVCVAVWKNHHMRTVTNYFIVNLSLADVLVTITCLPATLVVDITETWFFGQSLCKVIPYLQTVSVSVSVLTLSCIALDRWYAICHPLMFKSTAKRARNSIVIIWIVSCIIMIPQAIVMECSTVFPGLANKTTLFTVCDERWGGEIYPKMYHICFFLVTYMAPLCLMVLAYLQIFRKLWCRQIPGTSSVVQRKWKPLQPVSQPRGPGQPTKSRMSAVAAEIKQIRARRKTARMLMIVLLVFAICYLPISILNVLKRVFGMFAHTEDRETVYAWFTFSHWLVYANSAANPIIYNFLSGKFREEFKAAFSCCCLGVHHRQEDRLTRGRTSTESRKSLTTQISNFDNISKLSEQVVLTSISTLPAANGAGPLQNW", "assay": "Human orexin 2 receptor radioligand binding ([3H]-EMPA)", "settings": "averages of 2-20 runs, read-out: hOX2 Ki", "experimental": "(§1) Data are analyzed using pc-Sandy macro and graphed on Graphpad Prism 5. For analysis, each concentration point is averaged from triplicate values and the averaged values are plotted on Graphpad Prism. The IC50 was determined by applying the following equation (GraphPad Prism 5.0, SanDiego) for one site competition where X=log (concentration) and Y=specific binding. Top denotes the total [^3H]-(1-(5-(2-fluoro-phenyl)-2-methyl-thiazol-4-yl)-1-((S)-2-(5-phenyl-(1,3,4)oxadiazol-2-ylmethyl)-pyrrolidin-1-yl)-methanone) binding, bottom denotes the nonspecific [^3H]-(1-(5-(2-fluoro-phenyl)-2-methyl-thiazol-4-yl)-1-((S)-2-(5-phenyl-(1,3,4)oxadiazol-2-ylmethyl)-pyrrolidin-1-yl)-methanone) binding. Graphpad Prism calculates Ki value from IC50 and the pre-determined Kd values for [^3H]-(1-(5-(2-fluoro-phenyl)-2-methyl-thiazol-4-yl)-1-((S)-2-(5-phenyl-(1,3,4)oxadiazol-2-ylmethyl)-pyrrolidin-1-yl)-methanone) and [3H]-EMPA. The Ki for each compound is then uploaded into 3DX. Each run comprises individual compounds in triplicate.\nHuman Orexin 2 Receptor Radioligand Binding Studies\nHEK293 stably expressing human orexin 2 receptor (Genebank accession number NM_001526) were grown to confluency in DMEM (Hyclone, cat #SH30022), 10% FBS, 1×Pen/Strep, 1× NaPyruvate, 10 mM HEPES, 600 ug/ml G418 media on 150 cm^2 tissue culture plates, washed with 5 mM EDTA in PBS (HyClone Dulbecco's Phosphate Buffered Saline 1× with Calcium and Magnesium, Cat #SH30264.01, hereafter referred to simply as PBS) and scraped into 50 ml tubes. After centrifugation (2K×G, 5 min at 4° C.), the supernatant was aspirated and the pellets frozen and stored at −80° C. […] Each cell pellet from a 15 cm plate was resuspended in 10 mL, stored on ice, and homogenized for 45 sec just prior to addition to the reactions. Competition binding experiments in 96 well polypropylene plates were performed using [^3H]-EMPA (Moraveck Corporation, specific activity=29.6 Ci/mmol), diluted to a 5 nM concentration in PBS (2 nM final concentration). […] The final concentration of DMSO in the reactions is equal to or less than 0.1%. Total and nonspecific binding was determined in the absence and presence of 10 μM almorexant. The total volume of each reaction is 200 μL (20 μL of diluted compounds, 80 μL of [^3H]-EMPA diluted in PBS and 100 μL of the cell suspension). […] The plates were washed 3 times by aspirating 30 ml PBS through the plates. Plates were dried in 55° C. oven for 60 min, scintillation fluid was added, and the radioactivity was counted on a Topcount (Packard).", "values": [{"smiles": "Cc1ccc(-c2ncccn2)c(C(=O)N2CCC[C@@H](Nc3cc(C)nc(C(F)(F)F)n3)[C@@H]2C)c1", "note": "(racemic) [Example 7, (±)-trans-(5-methyl-2-(pyrimidin-2-yl)phenyl)(2-methyl-3-((6-methyl-2-(trifluoromethyl)pyrimidin-4-yl)amino)piperidin-1-yl)methanone]", "pKi": 6.61}, {"smiles": "Cc1cc(N[C@@H]2CCCN(C(=O)c3cc(F)ccc3-c3ncccn3)[C@H]2C)nc(C(F)(F)F)n1", "note": "(racemic) [Example 9, (±)-trans-(5-fluoro-2-(pyrimidin-2-yl)phenyl)(2-methyl-3-((6-methyl-2-(trifluoromethyl)pyrimidin-4-yl)amino)piperidin-1-yl)methanone]", "pKi": 5.65}, {"smiles": "Cc1ccc(-n2nccn2)c(C(=O)N2CCC[C@@H](Oc3ccc(C(F)(F)F)cn3)[C@@H]2C)n1", "note": "(racemic) [Example 109, (±)-trans-(2-methyl-3-((5-(trifluoromethyl)pyridin-2-yl)oxy)piperidin-1-yl)(6-methyl-3-(2H-1,2,3-triazol-2-yl)pyridin-2-yl)methanone]", "pKi": 6.33}, {"smiles": "Cc1ccc(C(=O)N2CCC[C@@H](Nc3cnc(Cl)cn3)[C@@H]2C)c(-n2nccn2)c1", "note": "(relative stereo) [Example 180, ((2S*,3R*)-3-((5-chloropyrazin-2-yl)amino)-2-methylpiperidin-1-yl)(4-methyl-2-(2H-1,2,3-triazol-2-yl)phenyl)methanone]", "pKi": 5.72}, {"smiles": "COc1ccc(C(=O)N2CCC[C@@H](Nc3ncc(Cl)cn3)[C@@H]2C)c(-n2nccn2)c1", "note": "(relative stereo) [Example 185, ((2 S*,3R*)-3-((5-chloropyrimidin-2-yl)amino)-2-methylpiperidin-1-yl)(4-methoxy-2-(2H-1,2,3-triazol-2-yl)phenyl)methanone]", "pKi": 5.07}, {"smiles": "COc1ccc(C(=O)N2CCC[C@@H](Nc3cnc(Cl)cn3)[C@@H]2C)c(-n2nccn2)c1", "note": "(relative stereo) [Example 186, ((2S*,3R*)-3-((5-chloropyrazin-2-yl)amino)-2-methylpiperidin-1-yl)(4-methoxy-2-(2H-1,2,3-triazol-2-yl)phenyl)methanone]", "pKi": 5.03}, {"smiles": "COc1ccc(C(=O)N2CCC[C@@H](Nc3ccc(C(F)(F)F)cn3)[C@@H]2C)c(Cl)n1", "note": "(relative stereo) [Example 193, (2-chloro-6-methoxypyridin-3-yl)((2S*,3R*)-2-methyl-3-((5-(trifluoromethyl)pyridin-2-yl)amino)piperidin-1-yl)methanone]", "pKi": "< 5.00"}, {"smiles": "CCOc1ccc(C)nc1C(=O)N1CCC[C@@H](Nc2ccc(C(F)(F)F)cn2)[C@@H]1C", "note": "(relative stereo) [Example 194, (3-ethoxy-6-methylpyridin-2-yl)((2S*,3R*)-2-methyl-3-((5-(trifluoromethyl)pyridin-2-yl)amino)piperidin-1-yl)methanone]", "pKi": 6.50}, {"smiles": "Cc1ccc(C(=O)N2CCC[C@@H](Nc3nnc(C(F)(F)F)s3)[C@@H]2C)c(-n2nccn2)n1", "note": "(relative stereo) [Example 196, (6-methyl-2-(2H-1,2,3-triazol-2-yl)pyridin-3-yl)((2S*,3R*)-2-methyl-3-((5-(trifluoromethyl)-1,3,4-thiadiazol-2-yl)amino)piperidin-1-yl)methanone]", "pKi": "< 5.00"}, {"smiles": "C[C@H]1[C@H](Nc2ncc(C(F)(F)F)cn2)CCCN1C(=O)c1cccc(F)c1-c1ncccn1", "note": "(relative stereo) [Example 200, (3-fluoro-2-(pyrimidin-2-yl)phenyl)((2S*,3R*)-2-methyl-3-((5-(trifluoromethyl)pyrimidin-2-yl)amino)piperidin-1-yl)methanone]", "pKi": 6.01}, {"smiles": "C[C@H]1[C@H](Nc2ncc(C(F)(F)F)cn2)CCCN1C(=O)c1ccc(F)cc1-c1ncccn1", "note": "(relative stereo) [Example 202, (4-fluoro-2-(pyrimidin-2-yl)phenyl)((2S*,3R*)-2-methyl-3-((5-(trifluoromethyl)pyrimidin-2-yl)amino)piperidin-1-yl)methanone]", "pKi": 5.82}, {"smiles": "C[C@H]1[C@H](Nc2cnc(C(F)(F)F)cn2)CCCN1C(=O)c1cccc(F)c1-c1ncccn1", "note": "(relative stereo) [Example 207, (3-fluoro-2-(pyrimidin-2-yl)phenyl)((2S*,3R*)-2-methyl-3-((5-(trifluoromethyl)pyrazin-2-yl)amino)piperidin-1-yl)methanone]", "pKi": 6.41}, {"smiles": "C[C@H]1[C@H](Oc2ccc(C(F)(F)F)cn2)CCCN1C(=O)c1ncccc1-c1ncccn1", "note": "(relative stereo) [Example 210, ((2S*,3R*)-2-methyl-3-((5-(trifluoromethyl)pyridin-2-yl)oxy)piperidin-1-yl)(3-(pyrimidin-2-yl)pyridin-2-yl)methanone]", "pKi": 6.13}, {"smiles": "Cc1ccc(C(=O)N2CCC[C@@H](Nc3nc4ccccc4o3)[C@@H]2C)c(-n2nccn2)n1", "note": "[Example 75, ((2S,3R)-3-(benzo[d]oxazol-2-ylamino)-2-methylpiperidin-1-yl)(6-methyl-2-(2H-1,2,3-triazol-2-yl)pyridin-3-yl)methanone]", "pKi": 5.05}, {"smiles": "C[C@H]1[C@H](Nc2ccc(Cl)cn2)CCCN1C(=O)c1ccccc1-n1nccn1", "note": "[Example 100, (2-(2H-1,2,3-triazol-2-yl)phenyl)((2S,3R)-3-((5-chloropyridin-2-yl)amino)-2-methylpiperidin-1-yl)methanone]", "pKi": 6.72}, {"smiles": "Cc1ccc(-n2nccn2)c(C(=O)N2CCC[C@@H](Oc3ccc(C(F)(F)F)cn3)[C@@H]2C)n1", "note": "[Example 108, ((2S,3R)-2-methyl-3-((5-(trifluoromethyl)pyridin-2-yl)oxy)piperidin-1-yl)(6-methyl-3-(2H-1,2,3-triazol-2-yl)pyridin-2-yl)methanone]", "pKi": 6.52}, {"smiles": "Cc1cccc(C(=O)N2CCC[C@@H](Oc3ncc(Cl)cn3)[C@@H]2C)c1-n1nccn1", "note": "[Example 163, ((2S,3R)-3-((5-chloropyrimidin-2-yl)oxy)-2-methylpiperidin-1-yl)(3-methyl-2-(2H-1,2,3-triazol-2-yl)phenyl)methanone]", "pKi": 5.98}]}, {"biological_target": "rat orexin 1 receptor (Rattus norvegicus, UniProt P56718)", "assay": "Rat orexin 1 receptor radioligand binding", "settings": "not given", "experimental": "as §1\n(§2) Rat and Human Orexin 1 Receptor Radioligand Binding Studies\n(§3) After centrifugation (2K×G, 5 min at 4° C.), the supernatant was aspirated and the pellets frozen and stored at −80° C. […] Each cell pellet from a 15 cm plate was resuspended in 10 mL, stored on ice, and homogenized for 45 sec prior to addition to the reactions. Competition binding experiments in 96 well polypropylene plates were performed using [^3H]-(1-(5-(2-fluoro-phenyl)-2-methyl-thiazol-4-yl)-1-((S)-2-(5-phenyl-(1,3,4)oxadiazol-2-ylmethyl)-pyrrolidin-1-yl)-methanone) (Moraveck Corporation, specific activity=35.3 Ci/mmol), diluted to a 10 nM concentration in PBS (4 nM final). […] The final concentration of DMSO in the reactions is equal to or less than 0.1%. Total and nonspecific binding was determined in the absence and presence of 10 μM almorexant. The total volume of each reaction is 200 μL (20 μL of diluted compounds, 80 μL of [^3H]-(1-(5-(2-fluoro-phenyl)-2-methyl-thiazol-4-yl)-1-((S)-2-(5-phenyl-(1,3,4)oxadiazol-2-ylmethyl)-pyrrolidin-1-yl)-methanone) diluted in PBS and 100 μL of the cell suspension). […] The plates were washed 3 times by aspirating 30 ml PBS through the plates. Plates were dried in 55° C. oven for 60 min, scintillation fluid was added, and the radioactivity was counted on a Topcount (Packard).", "values": [{"smiles": "Cc1ccc(-c2ncco2)c(C(=O)N2CCC[C@@H](Nc3ccc(C(F)(F)F)cn3)[C@@H]2C)n1", "note": "[Example 25, ((2S,3R)-2-methyl-3-((5-(trifluoromethyl)pyridin-2-yl)amino)piperidin-1-yl)(6-methyl-3-(oxazol-2-yl)pyridin-2-yl)methanone hydrochloride]", "pKi": 7.92}]}, {"biological_target": "rat orexin 1 receptor (Rattus norvegicus, UniProt P56718)", "assay": "Rat orexin 1 receptor radioligand binding", "settings": "rat orexin 1 receptor radioligand binding; averages of 2-20 runs; read-out: rOX1 Ki", "experimental": "as §1, §2, §3", "values": [{"smiles": "Cc1ccc(C(=O)N2CCC[C@@H](Nc3ccc(C(F)(F)F)cn3)[C@@H]2C)c(-n2nccn2)c1", "note": "(racemic) [Example 13, (±)-trans-(4-methyl-2-(2H-1,2,3-triazol-2-yl)phenyl)(2-methyl-3-((5-(trifluoromethyl)pyridin-2-yl)amino)piperidin-1-yl)methanone]", "pKi": 7.80}, {"smiles": "COc1ccc(C(=O)N2CCC[C@@H](Nc3ncc(Cl)cn3)[C@@H]2C)c(-n2nccn2)c1", "note": "(relative stereo) [Example 185, ((2 S*,3R*)-3-((5-chloropyrimidin-2-yl)amino)-2-methylpiperidin-1-yl)(4-methoxy-2-(2H-1,2,3-triazol-2-yl)phenyl)methanone]", "pKi": 6.59}, {"smiles": "COc1ccc(C(=O)N2CCC[C@@H](Nc3cnc(Cl)cn3)[C@@H]2C)c(-n2nccn2)c1", "note": "(relative stereo) [Example 186, ((2S*,3R*)-3-((5-chloropyrazin-2-yl)amino)-2-methylpiperidin-1-yl)(4-methoxy-2-(2H-1,2,3-triazol-2-yl)phenyl)methanone]", "pKi": 6.56}, {"smiles": "COc1ccc(C(=O)N2CCC[C@@H](Nc3ccc(C(F)(F)F)cn3)[C@@H]2C)c(Cl)n1", "note": "(relative stereo) [Example 193, (2-chloro-6-methoxypyridin-3-yl)((2S*,3R*)-2-methyl-3-((5-(trifluoromethyl)pyridin-2-yl)amino)piperidin-1-yl)methanone]", "pKi": 5.96}, {"smiles": "Cc1cnc(C(=O)N2CCC[C@@H](Nc3nnc(C(F)(F)F)s3)[C@@H]2C)c(-n2nccn2)c1", "note": "(relative stereo) [Example 195, ((2S*,3R*)-2-methyl-3-((5-(trifluoromethyl)-1,3,4-thiadiazol-2-yl)amino)piperidin-1-yl)(5-methyl-3-(2H-1,2,3-triazol-2-yl)pyridin-2-yl)methanone]", "pKi": 6.45}, {"smiles": "Cc1ccc(C(=O)N2CCC[C@@H](Nc3nnc(C(F)(F)F)s3)[C@@H]2C)c(-n2nccn2)n1", "note": "(relative stereo) [Example 196, (6-methyl-2-(2H-1,2,3-triazol-2-yl)pyridin-3-yl)((2S*,3R*)-2-methyl-3-((5-(trifluoromethyl)-1,3,4-thiadiazol-2-yl)amino)piperidin-1-yl)methanone]", "pKi": 5.74}]}]}
